US20160222014A1, “COMPOUNDS FOR REGULATING FAK AND/OR SRC PATHWAYS” (ASANA BIOSCIENCES, LLC, priority 2013, published 2016)

What was measured:
[1] = biological target: T1, AURKB (Aurora B) enzyme (Homo sapiens, UniProt Q96GD4); assay: Aurora B HTRF assay; assay type: biochemical; conditions: read-out: AuroraB IC50
T1 construct: purchased Invitrogen PVR 130
Method in brief: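 Enzyme (5 nM final) and ULight-labelled PLK Ser137 peptide (50 nM) reacted 1 h at room temperature; a 30 μM final component was also present. Detection used EDTA-containing buffer with europium anti-phospho-PLK(Ser137) antibody at 2 nM, 1 h, then time-resolved FRET readout.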

[2] = biological target: T2, Phospho Src(Y416) (Homo sapiens, UniProt P12931); assay: Phospho Src(Y416) Sandwich ELISA; assay type: cell-based; conditions: Panc1; read-out: pSrc EC50 (μM) Panc1
T2 construct: endogenous in cells; host or cells: Panc1
T2 sequence (P12931 whole entry): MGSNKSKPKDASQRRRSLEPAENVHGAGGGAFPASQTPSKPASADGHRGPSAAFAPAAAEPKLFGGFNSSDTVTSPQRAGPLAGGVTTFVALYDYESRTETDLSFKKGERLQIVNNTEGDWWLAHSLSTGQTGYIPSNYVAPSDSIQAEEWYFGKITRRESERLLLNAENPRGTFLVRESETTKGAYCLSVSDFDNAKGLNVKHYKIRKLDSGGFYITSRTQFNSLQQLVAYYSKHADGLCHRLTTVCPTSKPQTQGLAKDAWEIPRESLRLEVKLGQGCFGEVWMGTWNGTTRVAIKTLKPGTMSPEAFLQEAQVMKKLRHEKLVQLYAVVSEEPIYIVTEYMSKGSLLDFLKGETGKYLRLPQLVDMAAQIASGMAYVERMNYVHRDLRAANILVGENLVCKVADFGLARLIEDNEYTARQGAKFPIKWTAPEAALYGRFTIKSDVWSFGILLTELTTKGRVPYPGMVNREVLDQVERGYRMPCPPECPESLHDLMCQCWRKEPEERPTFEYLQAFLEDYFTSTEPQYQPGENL
Procedure: E. Phospho Src(Y416) Sandwich ELISA
Phospho Src(Y416) Sandwich ELISA kit was obtained from Cell Signaling Tech.
(i) Reagent Preparation • 1. All microwell strips were brought to rt before use. • 2. 1× Wash Buffer was prepared by diluting 20× Wash Buffer (included in each PathScan® Sandwich ELISA Kit) in MilliQ® water or equivalently purified water. • 3. 1× Cell Lysis Buffer from CST #9803: 20 mM Tris (pH 7.5), 150 mM NaCl, 1 mM ethylene diamine tetraacetate (EDTA), 1 mM ethylene glycol-bis(2-aminoethyl)-N,N,N′,N′-tetraacetic acid (EGTA), 1% Triton™ X-100, 2.5 mM sodium pyrophosphate, 1 mM b-glycerophosphate, 1 mM Na3VO4, 1 μg/mL leupeptin. This buffer was stored at 4° C. for short-term use (1-2 weeks).
(ii) Preparing Cell Lysates • 1. The media was aspirated. The cells were treated by adding fresh media containing inhibitor for 1 h. The compound of Example 214 was used as reference. • 2. The cells were harvested under non-denaturing conditions by removing media and rinsing cells once with ice-cold PBS. • 3. PBS was removed, 0.5 mL ice-cold 1× Cell Lysis Buffer plus 1 mM phenylmethylsulfonylfluoride (PMSF) was added to each plate (10 cm in diameter) and the plate incubated on ice for 5 min. • 4. The cells were scraped off of the plate, transferred to an appropriate tube, and kept on ice. • 5. The lysates were sonicated on ice. • 6. Microcentrifugation was performed for 10 min at 4° C. and the supernatant transferred to a new tube. The supernatant was the cell lysate and was stored at −80° C. in single-use aliquots.
(iii) Test Procedure • 1. After the microwell strips reached rt, the required number of microwells were broken off. The microwells were placed in the strip holder. Unused microwells were resealed and stored at 4° C. immediately. • 2. 100 μL of Sample Diluent (supplied in each PathScan® Sandwich ELISA Kit, blue color) was added to a micro centrifuge tube. 100 μL of cell lysate was transferred into the tube and vortexed for a few seconds. […] Individual data sheets for each kit provided information regarding an appropriate dilution factor for lysates and kit assay results. However, dilution factors were titrated when specific cell lysates are used. • 3. 100 μL of each diluted cell lysate were added to the appropriate well. It was then sealed with tape and pressed firmly onto top of microwells. The plate was incubated for 2 h at 37° C. Alternatively, the plate was incubated overnight at 4° C., which gave the best detection of target protein. • 4. The tape was gently removed and the wells washed: • a. The plate contents were discarded into a receptacle. • b. Each well was washed 4 times with 1× Wash Buffer, 200 μL. • c. For each wash, plates were struck on fresh towels hard enough to remove the residual solution in each well, but wells were not allowed to completely dry at any time. • d. The underside of all wells was cleaned with a lint-free tissue. • 5. 100 μL of Detection Antibody (green color) was added to each well, sealed with tape and the plate incubated for 1 h at 37° C. • 6. The wash procedure was repeated as in Step 4. • 7. 100 μL of HRP-linked secondary antibody (red color) was added to each well, sealed with tape and the plate incubated plate for 30 min at 37° C. • 8. The wash procedure was repeated as in Step 4. • 9. 100 μL of TMB Substrate was added to each well, sealed with tape and the plate incubated for 10 min at 37° C. or 30 min at 25° C. • 10. 100 μL of STOP Solution was added to each well and shaken gently for a few seconds. Initial color of positive reaction was blue, which changed to yellow upon addition of STOP Solution. • 11. The results were read. • a. Visual Determination—read within 30 min after adding STOP Solution. • b. Spectrophotometric Determination—the underside of wells were wiped with a lint-free tissue and absorbance read at 450 nm within 30 min after adding STOP Solution.

[3] = biological target: JAK2 (Homo sapiens, UniProt O60674); assay: JAK2 biochemical potency; conditions: read-out: JAK2 HTRF IC50
JAK2, sequence (O60674 whole entry, species assumed): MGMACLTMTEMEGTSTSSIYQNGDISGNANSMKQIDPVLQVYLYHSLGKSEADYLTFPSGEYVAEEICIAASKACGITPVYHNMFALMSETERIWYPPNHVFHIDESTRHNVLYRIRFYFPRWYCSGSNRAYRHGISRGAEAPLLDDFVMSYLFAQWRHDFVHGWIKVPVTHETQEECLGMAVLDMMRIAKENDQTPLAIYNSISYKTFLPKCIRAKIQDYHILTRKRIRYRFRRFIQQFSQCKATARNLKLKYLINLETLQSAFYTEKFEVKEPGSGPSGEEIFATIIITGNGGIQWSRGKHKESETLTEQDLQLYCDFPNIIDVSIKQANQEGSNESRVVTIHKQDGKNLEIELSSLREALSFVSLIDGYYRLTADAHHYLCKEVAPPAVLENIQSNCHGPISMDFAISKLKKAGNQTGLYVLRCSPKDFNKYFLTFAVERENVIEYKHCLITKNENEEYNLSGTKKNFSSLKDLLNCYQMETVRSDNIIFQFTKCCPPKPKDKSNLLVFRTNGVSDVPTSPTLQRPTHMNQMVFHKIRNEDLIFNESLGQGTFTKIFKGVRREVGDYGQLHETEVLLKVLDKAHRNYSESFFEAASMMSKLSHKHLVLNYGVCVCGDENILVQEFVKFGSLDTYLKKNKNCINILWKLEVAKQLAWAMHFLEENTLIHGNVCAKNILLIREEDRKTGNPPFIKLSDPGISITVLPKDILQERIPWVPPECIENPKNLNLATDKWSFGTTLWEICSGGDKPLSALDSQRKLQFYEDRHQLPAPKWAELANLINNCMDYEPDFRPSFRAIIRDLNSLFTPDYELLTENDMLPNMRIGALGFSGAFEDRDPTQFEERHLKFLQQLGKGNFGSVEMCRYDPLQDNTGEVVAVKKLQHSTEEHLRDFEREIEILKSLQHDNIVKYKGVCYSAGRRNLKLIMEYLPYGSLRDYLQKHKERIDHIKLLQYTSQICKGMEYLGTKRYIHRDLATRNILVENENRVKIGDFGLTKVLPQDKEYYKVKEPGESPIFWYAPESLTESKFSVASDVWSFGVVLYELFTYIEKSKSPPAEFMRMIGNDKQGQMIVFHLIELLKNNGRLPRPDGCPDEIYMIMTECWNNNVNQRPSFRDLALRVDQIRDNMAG

[4] = biological target: T3, Recombinant Src enzyme (Homo sapiens, UniProt P12931); assay: Src HTRF assay; assay type: biochemical
T3 construct: purchased Millipore 14-326; host or cells: Sf21 insect cells
T3 sequence (P12931 whole entry): as the sequence (P12931 whole entry) above
Method in brief: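 Run as for the FAK HTRF assay (same buffer, supplements, compound preparation and procedure), with dasatinib included. Reaction contained 0.5 μM biotin-tagged Tyk2 synthetic peptide, 5 nM Src made in Sf21 cells, and a pH7.4-buffer-prepared component at 10 μM final.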

[5] = biological target: T4, recombinant human FAK1 (Homo sapiens, UniProt Q05397); assay: FAK1 HTRF assay; assay type: biochemical
T4 construct: fused on or other part: N-terminal 6xHis tag
T4 sequence (Q05397 422-680 limits assumed): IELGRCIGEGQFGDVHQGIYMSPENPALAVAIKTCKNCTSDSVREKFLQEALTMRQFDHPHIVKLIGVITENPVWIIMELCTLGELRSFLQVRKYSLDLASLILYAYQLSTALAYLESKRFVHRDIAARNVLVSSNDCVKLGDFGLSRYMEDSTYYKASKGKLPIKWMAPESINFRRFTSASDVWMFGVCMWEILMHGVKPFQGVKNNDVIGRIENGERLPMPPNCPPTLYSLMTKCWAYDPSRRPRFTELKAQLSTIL
Method in brief: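 IC50 values derive from HTRF % inhibition (ratio 665/620 nm, Eu–anti-phosphotyrosine 0.1 nM, SA-APC 12 nM). The kinase step ran 45 min at room temperature, pairing 10 nM His-FAK1(692–end) from baculovirus with 0.5 μM gastrin Tyr87 biotin-peptide and a reagent at 10 μM final, pH 7.4. Compound dilutions began at 10 μM.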

[6] = biological target: T5, FAK phosphorylated at Y397 in HEK-FAK cell line overexpressing human FL FAK protein (Homo sapiens, UniProt Q05397); assay: Cell based assay, Phospho-FAK ELISA; conditions: HEK stb; read-out: pFAK EC50 (μM) HEK stb
T5 construct: expressed in transfected cells
T5 sequence (Q05397 whole entry): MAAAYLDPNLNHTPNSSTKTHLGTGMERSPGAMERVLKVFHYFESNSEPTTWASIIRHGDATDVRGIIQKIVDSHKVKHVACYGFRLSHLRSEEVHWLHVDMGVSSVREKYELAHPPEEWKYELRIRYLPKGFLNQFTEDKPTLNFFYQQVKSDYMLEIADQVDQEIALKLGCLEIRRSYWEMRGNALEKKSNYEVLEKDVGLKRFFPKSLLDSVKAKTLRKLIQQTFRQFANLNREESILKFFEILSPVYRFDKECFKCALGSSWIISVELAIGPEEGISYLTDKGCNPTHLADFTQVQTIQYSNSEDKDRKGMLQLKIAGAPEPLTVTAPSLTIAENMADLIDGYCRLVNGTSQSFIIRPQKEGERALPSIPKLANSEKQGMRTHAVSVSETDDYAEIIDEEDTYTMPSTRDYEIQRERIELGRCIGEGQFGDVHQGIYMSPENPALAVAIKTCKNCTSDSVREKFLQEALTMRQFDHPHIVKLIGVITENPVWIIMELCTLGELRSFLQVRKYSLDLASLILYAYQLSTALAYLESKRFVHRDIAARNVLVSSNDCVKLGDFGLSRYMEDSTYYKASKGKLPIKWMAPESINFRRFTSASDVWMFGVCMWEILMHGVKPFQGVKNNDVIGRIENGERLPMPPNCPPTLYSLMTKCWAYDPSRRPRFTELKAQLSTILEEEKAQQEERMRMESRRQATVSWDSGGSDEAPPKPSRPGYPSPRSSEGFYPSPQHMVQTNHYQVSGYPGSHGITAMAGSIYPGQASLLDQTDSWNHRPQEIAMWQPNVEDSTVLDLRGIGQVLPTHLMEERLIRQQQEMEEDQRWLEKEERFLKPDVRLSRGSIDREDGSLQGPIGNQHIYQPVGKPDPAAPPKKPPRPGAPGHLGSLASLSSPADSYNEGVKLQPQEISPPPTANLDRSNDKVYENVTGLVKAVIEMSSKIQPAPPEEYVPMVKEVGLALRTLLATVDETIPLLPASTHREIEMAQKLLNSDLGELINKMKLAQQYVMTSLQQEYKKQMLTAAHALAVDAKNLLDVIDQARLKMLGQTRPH
Method in brief: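 Stable HEK293 line overexpressing full-length human FAK, kept under 0.8 mg/mL Zeocin. In lysates, FAK Y397 autophosphorylation was measured by sandwich ELISA: total-FAK capture antibody, biotinylated pY397-specific detection antibody, streptavidin-HRP with TMB substrate.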

T1 sequence (Q96GD4 whole entry): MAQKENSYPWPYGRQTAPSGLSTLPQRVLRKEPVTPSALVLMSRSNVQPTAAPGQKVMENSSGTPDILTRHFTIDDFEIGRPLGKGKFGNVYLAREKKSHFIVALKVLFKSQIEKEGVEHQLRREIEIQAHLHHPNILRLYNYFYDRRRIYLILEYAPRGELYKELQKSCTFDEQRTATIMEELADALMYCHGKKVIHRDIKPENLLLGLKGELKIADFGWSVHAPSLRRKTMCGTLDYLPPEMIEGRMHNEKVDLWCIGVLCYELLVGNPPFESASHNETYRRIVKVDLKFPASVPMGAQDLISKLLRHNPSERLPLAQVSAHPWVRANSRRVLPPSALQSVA

IC50 [1] [µM]	EC50 [2] [µM]	IC50 [3] [µM]	IC50 [4] [µM]	IC50 [5] [µM]	EC50 [6] [µM]	Structure (SMILES)
< 0.02	> 1	< 0.02	–	–	–	O=C1CCc2cc(Nc3ncc4ccn(Cc5ccccc5OC(F)F)c4n3)ccc2N1 [Example 18]
–	> 1	< 0.02	–	–	–	O=C1CCc2cc(Nc3ncc4ccn(S(=O)(=O)c5ccccc5OC(F)(F)F)c4n3)ccc2N1 [Example 43]
> 1	> 1	–	< 0.02	–	–	O=C1CCc2cc(Nc3cc4c(cn3)cnn4Cc3ccccc3OC(F)F)ccc2N1 [Example 65]
–	> 1	< 0.02	–	–	–	CN(c1ncccc1Cn1ccc2cnc(Nc3ccc(N4CCOCC4)cc3)nc21)S(C)(=O)=O [Example 76]
–	> 1	< 0.02	–	–	–	CN(c1ncccc1Cn1ccc2cnc(Nc3cccc(NC(=O)C(C)(C)O)c3)nc21)S(C)(=O)=O [Example 79]
< 0.02	> 1	–	–	< 0.02	–	CN(C)S(=O)(=O)c1ccccc1Cn1ccc2cnc(Nc3ccc4c(c3)CCC(=O)N4)nc21 [Example 137]
–	> 1	–	> 1	–	–	CN(c1ncccc1Cn1ccc2cnc(Nc3cccc4ncccc34)nc21)S(C)(=O)=O [Example 160]
< 0.02	> 1	< 0.02	–	–	–	CN(c1ncccc1Cn1ccc2cnc(Nc3cccc(N4CCNCC4)c3)nc21)S(C)(=O)=O [Example 176]
–	> 1	> 1	–	–	> 1	N#Cc1ccccc1S(=O)(=O)n1ncc2cnc(Nc3ccc(N4CCNCC4)cc3)cc21 [Example 191]
–	< 0.02	< 0.02	–	–	> 1	CN(c1ncccc1Cn1ccc2cnc(Nc3ccc(N4CCNCC4)c(F)c3)nc21)S(C)(=O)=O [Example 195]
< 0.02	> 1	–	–	< 0.02	–	O=C1CCc2cc(Nc3ncc4ccn(S(=O)(=O)c5ccccc5Cl)c4n3)ccc2N1 [Example 199]
< 0.02	> 1	–	–	–	–	N#Cc1ccccc1S(=O)(=O)n1ccc2cnc(Nc3ccc(C4CCN(CC(N)=O)CC4)cc3)nc21 [Example 251]
< 0.02	> 1	–	–	< 0.02	–	NC(=O)CN1CCC(c2ccc(Nc3ncc4ccn(S(=O)(=O)c5cccc6cccnc56)c4n3)cc2)CC1 [Example 256]
< 0.02	> 1	< 0.02	–	< 0.02	–	CC(=O)Nc1ccc(Nc2ncc3ccn(S(=O)(=O)c4cccc5cccnc45)c3n2)cc1 [Example 307]
< 0.02	> 1	< 0.02	–	< 0.02	–	O=S(=O)(c1cccc2cccnc12)n1ccc2cnc(Nc3ccc(N4CCC(O)CC4)cc3)nc21 [Example 310]
–	> 1	–	–	–	> 1	Cn1cc(Nc2ncc3ccn(S(=O)(=O)c4ccccc4C#N)c3n2)cn1 [Example 317]
< 0.02	> 1	–	–	< 0.02	–	O=C(Nc1ccc(Nc2ncc3ccn(S(=O)(=O)c4cccc5cccnc45)c3n2)cc1)C1CC1 [Example 331]

IC50 [1] [µM]	EC50 [2] [µM]	IC50 [3] [µM]	IC50 [4] [µM]	IC50 [5] [µM]	EC50 [6] [µM]	Structure (SMILES)
< 0.02	> 1	–	–	< 0.02	–	Cc1cc(Nc2cc3c(ccn3S(=O)(=O)c3cccc4cccnc34)cn2)ccc1N1CCNCC1 [Example 334]
< 0.02	> 1	–	–	–	–	CN(c1ncccc1Cn1ccc2cnc(Nc3ccc(N4CCN5C(=O)CCC5C4)cc3)nc21)S(C)(=O)=O (stereo not drawn) [Example 408]
< 0.02	> 1	–	–	< 0.02	–	COC1CCN(c2ccc(Nc3ncc4ccn(S(=O)(=O)c5cccc6cccnc56)c4n3)cc2)CC1 [Example 412]
< 0.02	> 1	–	–	< 0.02	–	CN(c1ccccc1Cn1ccc2cnc(Nc3ccc(N4CCC(O)CC4)cc3)nc21)S(C)(=O)=O [Example 434]
–	> 1	–	–	–	> 1	CN(c1ccccc1Cn1ccc2cnc(Nc3ccc(NC(=O)C(C)(C)O)cc3)nc21)S(C)(=O)=O [Example 452]
< 0.02	> 1	–	–	< 0.02	–	CC(=O)N1CCN(c2ccc(Nc3ncc4ccn(Cc5ccccc5N(C)S(C)(=O)=O)c4n3)cc2)CC1 [Example 465]
< 0.02	> 1	–	–	< 0.02	–	C[C@@H]1CN(c2ccc(Nc3ncc4ccn(Cc5ccccc5N(C)S(C)(=O)=O)c4n3)cc2)CCN1C [Example 486]
–	> 1	< 0.02	–	–	> 1	CN(c1ccccc1Cn1ccc2cnc(Nc3ccc(C(=O)NCC(C)(C)O)c(F)c3)nc21)S(C)(=O)=O [Example 508]
< 0.02	> 1	< 0.02	–	< 0.02	–	CN(c1ccccc1Cn1ccc2cnc(Nc3ccc4c(c3)CC(=O)N4)nc21)S(C)(=O)=O [Example 513]
–	> 1	–	–	< 0.02	–	CN(c1ccccc1Cn1ccc2cnc(Nc3ccc4c(c3)OCC(=O)N4)nc21)S(C)(=O)=O [Example 539]
–	> 1	–	–	–	> 1	CN(c1ncccc1Cn1ccc2cnc(Nc3ccc(N4CCC(CO)CC4)cc3)nc21)S(C)(=O)=O [Example 559]
–	> 1	–	–	–	> 1	CN(C)C1CN(c2ccc(Nc3ncc4ccn(Cc5cccnc5N(C)S(C)(=O)=O)c4n3)cc2F)C1 [Example 605]
–	> 1	–	–	–	> 1	CN(c1ncccc1Cn1ccc2cnc(Nc3ccc(N4CCN(C5CC5)CC4)cc3)nc21)S(C)(=O)=O [Example 659]
–	> 1	–	–	–	> 1	CN(c1ncccc1Cn1ccc2cnc(Nc3ccc(-c4cc[nH]c(=O)c4)cc3)nc21)S(C)(=O)=O [Example 669]
< 0.02	> 1	–	–	–	–	CN(c1ccccc1Cn1ccc2cnc(Nc3ccc(C4CNC(=O)CO4)cc3)nc21)S(C)(=O)=O (stereo not drawn) [Example 676]
< 0.02	> 1	–	–	< 0.02	–	Cc1cn(S(=O)(=O)c2cccc3cccnc23)c2nc(Nc3ccc(N4CCC(N(C)C)CC4)cc3)ncc12 [Example 712]
–	> 1	–	–	< 0.02	–	CN(c1ccccc1Cn1ccc2cnc(Nc3ccc(N4CCCC(O)C4)cc3)nc21)S(C)(=O)=O (stereo not drawn) [Example 750]
